Measured values taken from article PMC13401508 (Pharmacological research, 2026).
Entries after “also recorded” stand apart in the source; their conditions may differ.

What was measured:
[1] = tested on: PDGF-AA; assay: PDGF-AA mRNA expression by qRT-PCR in PC cells; assay type: cell-based, human; settings: 24 hrs
Method: Total RNA was extracted from cells using miRNeasy kits (Qiagen), and cDNA was prepared as described previously. Gene specific TaqMan Probes were obtained from Applied Bio system, Thermo-Fisher, USA. qRT-PCR was performed using an ABI Quant Studio real-time PCR.
(§1) Fig. 2. […] NF-κB activity was measured by absorbance at 450 nm (n = 3 ± SD; * p < 0.05). […] C) PDGF-AA protein levels were determined in the three PC cell line-derived conditioned media by ELISA. In both panels: n = 3 ± SD; * p < 0.05.

[2] = tested on: NF-κB p65; assay: NF-κB p65 transcription factor activation assay; assay type: cell-based, human; settings: PC3-ML, ARCaP-M and C4–2B cells, 24 hrs, vs vehicle
Method: NF-κB p65 transcription factor assay kits were obtained from Cayman Chemical, USA and performed following the manufacturer’s instructions.
as §1

[3] = Particle size distribution (PSD); assay type: physicochemical; settings: wet method, water
Method: About 15 mg of sample was pre-dispersed using 1 mL of water. After mixing completely, PSD was analyzed with the parameters in Table below.

[4] = tested on: RM1-BM-Luc cells; assay: Experimental bone metastasis, intracardiac RM1-BM-Luc; assay type: in vivo, C57BL/6 mice
Method: For experimental bone metastasis experiments, 3 × 10^4 RM1-BM-Luc cells were injected by the intracardiac route to develop bone-metastases in 6- to 8-week-old male C57BL/6 mice as described previously. Incidence of metastasis was monitored using Bioluminescence imaging, as described previously.
Fig. 4. […] RM1-BM-Luc cells were injected through the intracardiac (I.C.) route into C57BL/6 mice to establish experimental bone metastases. […] A) BLI imaging was performed on day 15 and the number of bone metastasis positive mice were graphically represented as metastatic events. B) Calculated ROI values are graphically represented (n = 6 ± SEM; * p < 0.05). C) Ex vivo BLI image of representative bones from both vehicle and IVMT-Rx-4 treated animals. D) Representative ex vivo images and (E) number of animals positive for metastases in the lungs, liver, brain and spleen for each experimental group ae presented.

[5] = target: T1, CYP3A4 (Homo sapiens, UniProt P08684); assay: Time dependent CYP inhibition (TDI); assay type: in vitro ADME; settings: human liver microsomes, with or without NADPH
T1 construct: in the presence of human liver microsomes; from tissue; host or cells: human liver microsomes
T1 sequence (P08684 whole entry): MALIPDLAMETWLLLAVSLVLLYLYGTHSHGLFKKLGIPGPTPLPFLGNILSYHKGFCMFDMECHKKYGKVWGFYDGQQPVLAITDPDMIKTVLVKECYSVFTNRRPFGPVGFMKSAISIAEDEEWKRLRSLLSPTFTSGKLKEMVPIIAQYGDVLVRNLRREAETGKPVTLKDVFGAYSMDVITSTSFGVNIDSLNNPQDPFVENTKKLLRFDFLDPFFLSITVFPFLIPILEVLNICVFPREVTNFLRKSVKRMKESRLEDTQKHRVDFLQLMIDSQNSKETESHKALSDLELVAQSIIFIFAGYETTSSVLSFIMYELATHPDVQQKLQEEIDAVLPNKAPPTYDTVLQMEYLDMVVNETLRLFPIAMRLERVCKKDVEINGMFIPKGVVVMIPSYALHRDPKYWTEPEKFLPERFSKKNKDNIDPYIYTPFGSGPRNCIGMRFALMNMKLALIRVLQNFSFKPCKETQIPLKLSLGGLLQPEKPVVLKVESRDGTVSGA
Method: Then, the specific CYP3A4 substrate was added, and aliquots were collected at various time points. Samples were then diluted with ultra-pure water and analyzed by LC-MS/MS. Area ratio and remaining Activity (%) were calculated as above and IC50 values was calculated using Excel XLfit 5.3.1.3.

[6] = Pharmacokinetic studies, single dose IV, PO, SC, IP; assay type: in vivo, CD1 mice
Method: CD1 mice were randomly grouped to 4 groups (n=3 per group). […] Further, 20-µL blood samples were collected from a capillary in the retro-orbital plexus at pre-determined time intervals, placed into heparinized tubes, and immediately centrifuged (2500 × g, 15 min, 4 °C). The plasma was separated and kept frozen at −80 °C until analysis.
Then the samples were vortexed for 30 s. After centrifugation at 4000 rpm for 15 min at 4 °C, the supernatant was diluted 3 times with water.5 µL of the diluted supernatant was injected into the Shimadzu LC/MS/MS system with a Phenomenex Kinetex C18 column (2.1 mm × 50 mm, 5 µm, 100 Å ). The samples were chromatographed using a gradient mobile phase consisting of 95% water (0.1% formic acid)– 95% acetonitrile (0.1% formic acid), delivered at a flow rate of 0.6 mL/min.

[7] = tested on: CYP1A2, 2A6, 2B6, 2C8, 2C9, 2C19, 2D6 (the other isoforms of the panel); assay: Drug-substrate based CYP inhibition, other isoforms of the panel; assay type: in vitro ADME; settings: human liver microsomes; isoforms of the panel not given; read-out: Drug-substrate based CYP Inhibition, others
Method: (§2) IVMT-Rx-4 was incubated with selective probe substrates of each CYP isoform in the presence of human liver microsomes. The formation of metabolite was quantified using LC-MS/MS methods. The extent of inhibition was assessed by calculating the remaining enzyme activity and percent inhibition based on analyte-to-internal standard area ratios, using the following equations:
(§3) Area Ratio = Peak AreaAnalyte / Peak AreaInternal Standard
(§4) Remaining Activity (%) = Area Ratiotest compound / Area Ratiovehicle ×100
(§5) Inhibition (%) = 100 ̶ Remaining Activity (%)

[8] = tested on: CYP 1A2, 2A6, 2B6, 2C8, 2C9, 2C19, 2D6, 2E1, 3A4_M, 3A4_T (the others); assay: as above; assay type: in vitro ADME; settings: human liver microsomes; isoforms of the panel not given
Method: as §2, §3, §4, §5

[9] = tested on: Salmonella typhimurium TA98 & TA100; assay: Mini-Ames assay; assay type: cell-based; settings: with or without S9 mix
Method: The mini-AMES assay was performed in Pharmaron, Inc. following the standard protocol as developed by the in-house scientist. […] The assay was conducted in the presence or absence of the S9 mix along with concurrent negative/solvent control and positive controls.

[10] = Stability in liver microsomes with NADPH and UDPGA; assay type: in vitro ADME; settings: liver microsomes; all species (human, monkey, dog, rat, mouse), NADPH and UDPGA added; read-out: t½ in liver microsomes
Method: Test samples were incubated at 37 °C, and Verapamil was used as a positive control. Samples were drawn from the incubation solution at different timepoints, centrifuged, then diluted with ultra-pure H20 and analyzed via LC-MS/MS. The natural logarithm of the remaining parent drug at each timepoint was plotted against incubation time, and the following equation was used to calculate the in vitro half-life:
in vitro t1/2 = -(0.693/k), where k is the rate constant.

[11] = tumor-bearing animals, 30 mg/kg I.P., vs DMSO

Cc1cc(NC(=O)CCc2nnc(-c3ccccc3)o2)c(C)cc1N [IVMT-Rx-4]
PDGF-AA levels in mda-9 knockout clones ([1]; PC3-ML mda-9 KO and ARCaP-M mda-9 KO): did not further reduce PDGF-AA levels
PDGF-AA mRNA level ([1]; PC3-ML, ARCaP-M and C4–2B cells, 25 μM or 50 μM): decreased PDGF-AA
NF-κB activity [2]: decreased NF-κB activity
Dv [90], average value [3]: 58.6 μm
animals with bone metastases ([4]; 30 mg/kg I.P. 3X a week for two weeks, fourteen days post-intracardiac injection, BLI): 0 out of 6
Ex Vivo Imaging; Positive for tumor cells (n=6) Brain ([4]; 30 mg/kg I.P., 6 doses): 0
Ex Vivo Imaging; Positive for tumor cells (n=6) Liver ([4]; 30 mg/kg I.P., 6 doses): 2
Ex Vivo Imaging; Positive for tumor cells (n=6) Lungs ([4]; 30 mg/kg I.P., 6 doses): 6
Ex Vivo Imaging; Positive for tumor cells (n=6) Spleen ([4]; 30 mg/kg I.P., 6 doses): 0
metastasis to the liver, brain and spleen, as well as to the bones ([4]; 30 mg/kg I.P., ex-vivo imaging): partially prevented metastasis
CXCL5 in the serum of mice [4, 11]: reduced expression
PDGF-AA in the serum of mice [4, 11]: reduced expression
Time-dependent inhibition (TDI), CYP3A4 [5]: no time-dependent inhibition; also recorded: No TDI
Tmax ([6]; CD1, mouse, plasma, 10 mg/kg, all non-intravenous routes): ≤ 30 min
half-life ([6]; CD1, mouse, plasma, ip, 10 mg/kg, IP 10 mg/kg, read-out: Plasma half-life (converted)): 61.2 min
half-life ([6]; CD1, mouse, plasma, iv, 3 mg/kg, IV 3 mg/kg, mean of 3 mice, read-out: T1/2 (plasma half-life) (converted)): 27 min
half-life ([6]; CD1, mouse, plasma, po, 10 mg/kg, PO 10 mg/kg, read-out: Plasma half-life (converted)): 82.2 min
half-life ([6]; CD1, mouse, plasma, sc, 10 mg/kg, SC 10 mg/kg, read-out: Plasma half-life (converted)): 41.4 min
Maximum plasma concentration (Cmax) ([6]; IP 10 mg/kg): 1012 ng/mL
time to reach Cmax (Tmax) ([6]; IP 10 mg/kg): 15 min
time after which plasma levels became undetectable ([6]; IV 3 mg/kg): 4 h
Maximum plasma concentration (Cmax) ([6]; PO 10 mg/kg): 2047 ng/mL
time to reach Cmax (Tmax) ([6]; PO 10 mg/kg): 15 min
time after which plasma levels became undetectable ([6]; PO, SC and IP routes, 10 mg/kg): 8 h
Maximum plasma concentration (Cmax) ([6]; SC 10 mg/kg): 1017 ng/mL
time to reach Cmax (Tmax) ([6]; SC 10 mg/kg): 30 min
IC50 [7]: > 10 µM
Drug-substrate based CYP Inhibition, others [8]: no inhibitory effects
cytotoxicity to tester strains in Mini-Ames assay ([9]; 1.5 to 1000 μg/well): No obvious cytotoxicity
Mini-Ames Assay (2-strain option: TA98 & TA100) [9]: Weakly positive for 2 strains
half-life [10]: > 210 min
